A word on the IC50: it is the concentration needed to halve the response being measured.

Results on 14 compounds are retold here after patent publication US10336775B2 (Asceneuron SA, priority 2014, dated 2019).

The target of the assay is His-Tagged hOGA (human O-GlcNAcase) (Homo sapiens (Human), UniProt O60502). Put plainly: Human O-GlcNAcase enzyme inhibition assay (Example B01). The conditions noted are these: OGA enzyme inhibition assay; activity range classes defined in μM; read-out: OGA IC50. In kind it is biochemical.
His-Tagged hOGA (human O-GlcNAcase), sequence (O60502 whole entry): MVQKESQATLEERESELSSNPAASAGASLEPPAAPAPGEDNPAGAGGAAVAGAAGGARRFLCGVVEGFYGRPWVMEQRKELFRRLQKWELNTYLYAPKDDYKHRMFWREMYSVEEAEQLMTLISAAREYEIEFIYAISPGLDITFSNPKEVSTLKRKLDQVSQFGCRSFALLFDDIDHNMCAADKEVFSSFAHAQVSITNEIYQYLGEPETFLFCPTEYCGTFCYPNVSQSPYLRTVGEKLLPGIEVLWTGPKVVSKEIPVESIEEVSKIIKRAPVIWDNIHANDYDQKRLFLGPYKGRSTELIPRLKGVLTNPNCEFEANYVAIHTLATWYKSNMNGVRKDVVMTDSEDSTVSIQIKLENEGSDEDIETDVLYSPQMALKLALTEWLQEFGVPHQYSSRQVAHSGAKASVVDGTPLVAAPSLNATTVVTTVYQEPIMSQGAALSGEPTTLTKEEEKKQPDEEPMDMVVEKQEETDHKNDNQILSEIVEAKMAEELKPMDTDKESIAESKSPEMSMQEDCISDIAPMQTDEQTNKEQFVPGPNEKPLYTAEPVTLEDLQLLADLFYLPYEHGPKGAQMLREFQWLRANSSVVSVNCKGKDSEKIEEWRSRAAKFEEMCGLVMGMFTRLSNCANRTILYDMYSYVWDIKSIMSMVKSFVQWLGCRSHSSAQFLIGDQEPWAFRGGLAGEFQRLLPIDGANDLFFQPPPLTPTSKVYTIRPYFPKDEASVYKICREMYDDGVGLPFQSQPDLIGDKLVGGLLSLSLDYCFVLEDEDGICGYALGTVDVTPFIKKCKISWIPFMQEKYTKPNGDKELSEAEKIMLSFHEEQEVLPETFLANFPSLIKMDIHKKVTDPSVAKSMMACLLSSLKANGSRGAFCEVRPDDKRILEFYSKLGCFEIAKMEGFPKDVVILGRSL
`CC(=O)Nc1cnc(N2CCN(C(C)c3ccc4nccnc4c3)CC2)nc1` (racemic) [Example 93, N-(2-(4-(1-(quinoxalin-6-yl)ethyl)piperazin-1-yl)pyrimidin-5-yl)acetamide]: the half-inhibitory concentration (IC50) is below 0.05 µM.
In the case of `CC(c1ccc2nccnc2c1)N1CCN(c2nccc(C(F)(F)F)n2)CC1` (racemic) [Example 94, 6-(1-(4-(4-(trifluoromethyl)pyrimidin-2-yl)piperazin-1-yl)ethyl)quinoxaline] it was 0.2 to 1 µM; in that of `CC(=O)Nc1cnc(N2CCN(C(C)c3ccc4c(c3)OCCO4)CC2)nc1` (racemic) [Example 96, N-(2-(4-(1-(2,3-Dihydrobenzo[b][1,4]dioxin-6-yl)ethyl)piperazin-1-yl)pyrimidin-5-yl)acetamide], below 0.05 µM; in that of `CC(=O)Nc1nnc(N2CCN(C(C)c3ccc4c(c3)OCCO4)CC2)s1` (racemic) [Example 97, N-(5-(4-(1-(2,3-Dihydrobenzo[b][1,4]dioxin-6-yl)ethyl)piperazin-1-yl)-1,3,4-thiadiazol-2-yl)acetamide], below 0.05 µM.
In the case of `CNC(=O)c1cnc(N2CCN(C(C)c3ccc4c(c3)OCO4)CC2)nc1` (racemic) [Example 98, 2-(4-(1-(Benzo[d][1,3]dioxol-5-yl)ethyl)piperazin-1-yl)-N-methylpyrimidine-5-carboxamide], the IC50 was below 0.05 µM.
In the case of `CC(c1ccc2c(c1)OCO2)N1CCN(c2ncc(C(=O)N(C)C)cn2)CC1` (racemic) [Example 99, 2-(4-(1-(benzo[d][1,3]dioxol-5-yl)ethyl)piperazin-1-yl)-N,N-dimethylpyrimidine-5-carboxamide] it was below 0.05 µM.
Then `CC(=O)Nc1nnc(N2CCN(C(C)c3ccc4c(Cl)ccnc4c3)CC2)s1` (racemic) [Example 100, N-(5-(4-(1-(4-chloroquinolin-7-yl)ethyl)piperazin-1-yl)-1,3,4-thiadiazol-2-yl)acetamide], with 0.2 to 1 µM; and `CC(=O)Nc1cnc(N2CCN(C(C)c3ccc4c(Cl)ccnc4c3)CC2)nc1` (racemic) [Example 101, N-(2-(4-(1-(4-chloroquinolin-7-yl)ethyl)piperazin-1-yl)pyrimidin-5-yl)acetamide], with 0.2 to 1 µM.
Then `Cc1cnc(N2CCN(C(C)c3ccc4nccnc4c3)CC2)nc1` (racemic) [Example 102, 6-(1-(4-(5-Methylpyrimidin-2-yl)piperazin-1-yl)ethyl)quinoxaline], with 0.05 to 0.2 µM; and `CCc1cnc(N2CCN(C(C)c3ccc4nccnc4c3)CC2)nc1` (racemic) [Example 103, 6-(1-(4-(5-ethylpyrimidin-2-yl)piperazin-1-yl)ethyl)quinoxaline], with 0.05 to 0.2 µM; and `CCC(=O)Nc1nnc(N2CCN(C(C)c3ccc4c(c3)OCO4)CC2)s1` (racemic) [Example 105, N-(5-(4-(1-(benzo[d][1,3]dioxol-5-yl)ethyl)piperazin-1-yl)-1,3,4-thiadiazol-2-yl)propionamide], with below 0.05 µM.
Regarding `CCCC(=O)Nc1nnc(N2CCN(C(C)c3ccc4c(c3)OCO4)CC2)s1` (racemic) [Example 106, N-(5-(4-(1-(benzo[d][1,3]dioxol-5-yl)ethyl)piperazin-1-yl)-1,3,4-thiadiazol-2-yl)butyramide], the IC50 is below 0.05 µM.
Take `CC(C)C(=O)Nc1nnc(N2CCN(C(C)c3ccc4c(c3)OCO4)CC2)s1` (racemic) [Example 107, N-(5-(4-(1-(benzo[d][1,3]dioxol-5-yl)ethyl)piperazin-1-yl)-1,3,4-thiadiazol-2-yl)isobutyramide]: the IC50 was below 0.05 µM.
In the case of `CC(c1ccc2c(c1)OCO2)N1CCN(c2nnc(NC(=O)C3CC3)s2)CC1` (racemic) [Example 108, N-(5-(4-(1-(benzo[d][1,3]dioxol-5-yl)ethyl)piperazin-1-yl)-1,3,4-thiadiazol-2-yl)cyclo propanecarboxamide], the IC50 is below 0.05 µM.
